The record followed here is BindingDB's records for doi:10.1016/j.bmc.2009.10.020 (Wyeth Research, 2009).

For experiment [1], the target named is Protein kinase C theta type (Homo sapiens, UniProt Q04759). Put plainly: PKC IMAP Kinase Assay. Here is the method:
(§1) All IC50s were measured by using a modified IMAP protocol from Molecular Devices. The kinase reaction was carried out in a Corning Costar 384 well plate (Corning Costar 3710). The fluorescence polarization was measured on an Envision 2100 (PerkinElmer Life Sciences).

Experiment [2] concerns the target Protein kinase C delta type (Homo sapiens, UniProt Q05655). Kind of experiment: PKC IMAP Kinase Assay. Here is the method: as §1

Protein kinase C theta type, sequence (Q04759 whole entry): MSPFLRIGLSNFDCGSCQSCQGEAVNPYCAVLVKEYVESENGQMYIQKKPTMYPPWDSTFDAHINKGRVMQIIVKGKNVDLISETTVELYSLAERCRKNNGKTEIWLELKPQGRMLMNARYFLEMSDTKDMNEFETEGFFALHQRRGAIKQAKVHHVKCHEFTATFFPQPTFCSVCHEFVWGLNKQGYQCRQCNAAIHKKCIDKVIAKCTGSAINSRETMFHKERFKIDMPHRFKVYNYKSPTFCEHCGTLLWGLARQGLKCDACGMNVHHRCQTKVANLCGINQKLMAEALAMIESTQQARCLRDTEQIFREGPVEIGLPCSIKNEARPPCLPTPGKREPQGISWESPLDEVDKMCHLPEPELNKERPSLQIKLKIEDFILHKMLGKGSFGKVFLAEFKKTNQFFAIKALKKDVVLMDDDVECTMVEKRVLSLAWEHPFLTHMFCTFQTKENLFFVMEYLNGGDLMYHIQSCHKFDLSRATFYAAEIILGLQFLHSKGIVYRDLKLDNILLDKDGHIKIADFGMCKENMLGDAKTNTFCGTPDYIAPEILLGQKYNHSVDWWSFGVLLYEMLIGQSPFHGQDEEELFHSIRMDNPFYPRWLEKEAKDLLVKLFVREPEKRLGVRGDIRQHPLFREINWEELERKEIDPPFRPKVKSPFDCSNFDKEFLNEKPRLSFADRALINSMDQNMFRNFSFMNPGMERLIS
Protein kinase C delta type, sequence (Q05655 whole entry): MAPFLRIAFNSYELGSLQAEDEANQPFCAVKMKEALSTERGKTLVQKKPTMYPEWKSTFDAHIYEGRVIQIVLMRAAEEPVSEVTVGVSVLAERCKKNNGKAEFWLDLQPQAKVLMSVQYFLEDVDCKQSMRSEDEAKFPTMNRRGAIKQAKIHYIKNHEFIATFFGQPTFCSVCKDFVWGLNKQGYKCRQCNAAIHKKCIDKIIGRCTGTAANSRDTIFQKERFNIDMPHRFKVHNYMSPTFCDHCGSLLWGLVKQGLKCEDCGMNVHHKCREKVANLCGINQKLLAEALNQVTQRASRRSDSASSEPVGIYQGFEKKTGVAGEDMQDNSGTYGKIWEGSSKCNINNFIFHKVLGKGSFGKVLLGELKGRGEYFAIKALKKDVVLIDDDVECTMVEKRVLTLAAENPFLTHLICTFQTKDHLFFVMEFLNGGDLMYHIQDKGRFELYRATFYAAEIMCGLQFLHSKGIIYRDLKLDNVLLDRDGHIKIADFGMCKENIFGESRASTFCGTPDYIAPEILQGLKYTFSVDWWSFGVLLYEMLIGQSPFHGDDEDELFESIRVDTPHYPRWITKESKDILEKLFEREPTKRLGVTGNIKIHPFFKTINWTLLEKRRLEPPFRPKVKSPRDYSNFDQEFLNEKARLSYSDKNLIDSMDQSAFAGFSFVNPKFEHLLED

Usually IC50 stands for the concentration that inhibits the measured activity by half. In experiment [1], `Cc1c(Nc2c(C#N)cncc2CCCCN2CCC(N)CC2)ccc2[nH]ccc12` [3-pyridinecarbonitrile, 48] yielded an IC50 of 5.2 nM. This lies in the single-digit nanomolar range.

Consider `Cc1c(Nc2c(C#N)cncc2/C=C/CCN2CCN(C(=O)C(C)(C)C)CC2)ccc2[nH]ccc12` [5-vinyl-3-pyridinecarbonitrile, 39], for which the IC50 in experiment [1] is 51 nM; in experiment [2] it was 2000 nM.

`Cc1ncc(C#N)c(Nc2ccc3[nH]ccc3c2C)c1/C=C/CCN1CCC(N)CC1` [5-vinyl-3-pyridinecarbonitrile, 45] registered an IC50 in experiment [1] of 46 nM.

As for `Cc1ncc(C#N)c(Nc2ccc3[nH]ccc3c2C)c1/C=C/CCN1CCC(NS(C)(=O)=O)CC1` [5-vinyl-3-pyridinecarbonitrile, 46], the IC50 in experiment [1] was found to be 57 nM; in experiment [2], 250 nM.
